Key:
Glucocorticoid receptor [1] = target: T1, Glucocorticoid receptor (Homo sapiens, UniProt P04150); test: Displacement of [3H]dexamethasone from human recombinant GR
T1 sequence (P04150 whole entry): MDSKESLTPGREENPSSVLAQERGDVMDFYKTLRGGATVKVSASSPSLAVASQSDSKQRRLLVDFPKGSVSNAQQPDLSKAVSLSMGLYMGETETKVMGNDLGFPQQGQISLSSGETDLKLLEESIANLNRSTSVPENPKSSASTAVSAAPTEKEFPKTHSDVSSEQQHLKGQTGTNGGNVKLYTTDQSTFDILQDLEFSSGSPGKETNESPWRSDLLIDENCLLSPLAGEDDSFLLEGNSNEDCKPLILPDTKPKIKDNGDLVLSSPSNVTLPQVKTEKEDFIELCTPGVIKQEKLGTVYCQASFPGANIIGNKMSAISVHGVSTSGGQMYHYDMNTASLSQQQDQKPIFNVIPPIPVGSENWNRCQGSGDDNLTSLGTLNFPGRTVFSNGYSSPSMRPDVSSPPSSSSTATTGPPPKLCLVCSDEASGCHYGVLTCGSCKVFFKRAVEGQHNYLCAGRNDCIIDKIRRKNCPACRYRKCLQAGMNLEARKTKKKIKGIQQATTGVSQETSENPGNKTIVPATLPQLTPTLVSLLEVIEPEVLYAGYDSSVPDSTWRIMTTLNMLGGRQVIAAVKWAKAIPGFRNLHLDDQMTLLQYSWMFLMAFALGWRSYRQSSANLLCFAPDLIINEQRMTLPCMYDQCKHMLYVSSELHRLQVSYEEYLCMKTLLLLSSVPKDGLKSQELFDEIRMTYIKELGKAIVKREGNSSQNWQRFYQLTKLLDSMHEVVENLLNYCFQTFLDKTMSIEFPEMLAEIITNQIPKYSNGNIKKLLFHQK

Glucocorticoid receptor [2] = target: T1, Glucocorticoid receptor; test: Antagonist activity at GR in SW1353/MMTV5 cells assessed as inhibition of dexamethasone-induced luciferase expression; assay type: functional, cell-based

| Ki (Glucocorticoid receptor [1]) | Ki (Glucocorticoid receptor [2]) | SMILES |
| --- | --- | --- |
| 1.5 nM | 4.9 nM | O=S(=O)(c1ccccc1)N1CCC2=Cc3c(cnn3-c3ccc(F)cc3)C[C@]2(CN2CCCC2)C1 |
| 1.1 nM | 10 nM | CN(C)C[C@]12Cc3cnn(-c4ccc(F)cc4)c3C=C1CCN(S(=O)(=O)c1ccccc1)C2 |
| 1.6 nM | 5.8 nM | CC(C)(C)c1ccc(S(=O)(=O)N2CCC3=Cc4c(cnn4-c4ccc(F)cc4)C[C@]3(CN3CCCCC3)C2)cc1 |
| 10 nM |  | O=S(=O)(c1ccccc1)N1CCC2=Cc3c(cnn3-c3ccc(F)cc3)C[C@]2(CO)C1 |
| 0.5 nM | 2.9 nM | COCCOC[C@]12Cc3cnn(-c4ccc(F)cc4)c3C=C1CCN(S(=O)(=O)c1ccccc1)C2 |
| 6.7 nM | 85 nM | CN1CCN(C[C@]23Cc4cnn(-c5ccc(F)cc5)c4C=C2CCN(S(=O)(=O)c2ccc(C(C)(C)C)cc2)C3)CC1 |
| 8.6 nM | 77 nM | CC(C)(C)c1ccc(S(=O)(=O)N2CCC3=Cc4c(cnn4-c4ccc(F)cc4)C[C@]3(COCCN3CCCCC3)C2)cc1 |
| 0.8 nM | 5.8 nM | O=S(=O)(c1ccccc1)N1CCC2=Cc3c(cnn3-c3ccc(F)cc3)C[C@]2(CN2CCCCC2)C1 |
| 1.6 nM | 8 nM | O=S(=O)(c1ccc(F)cc1)N1CCC2=Cc3c(cnn3-c3ccc(F)cc3)C[C@]2(CN2CCCC2)C1 |

More lines, now with the values behind:

| SMILES | Ki (Glucocorticoid receptor [1]) | Ki (Glucocorticoid receptor [2]) |
| --- | --- | --- |
| COC[C@]12Cc3cnn(-c4ccc(F)cc4)c3C=C1CCN(S(=O)(=O)c1ccc(C)cc1)C2 | 0.5 nM | 5.7 nM |
| CN(C)C[C@]12Cc3cnn(-c4ccc(F)cc4)c3C=C1CCN(S(=O)(=O)c1ccc(F)cc1)C2 | 2.6 nM | 29 nM |
| CC(C)(C)c1ccc(S(=O)(=O)N2CCC3=Cc4c(cnn4-c4ccc(F)cc4)C[C@]3(Cc3ccccc3)C2)cc1 | 1.4 nM | 4.7 nM |
| C[C@]12Cc3cnn(-c4ccc(F)cc4)c3C=C1CCN(S(=O)(=O)c1ccccc1F)C2 | 34 nM |  |
| CC(C)(C)c1ccc(S(=O)(=O)N2CCC3=Cc4c(cnn4-c4ccc(F)cc4)C[C@]3(COCCO)C2)cc1 | 0.8 nM | 8.7 nM |
| CC(C)(C)c1ccc(S(=O)(=O)N2CCC3=Cc4c(cnn4-c4ccc(F)cc4)C[C@]3(CO)C2)cc1 | 1.6 nM | 47 nM |
| CCCOC[C@]12Cc3cnn(-c4ccc(F)cc4)c3C=C1CCN(S(=O)(=O)c1ccc(C(F)(F)F)cc1)C2 | 0.9 nM | 9 nM |
| O=S(=O)(c1ccc(F)cc1)N1CCC2=Cc3c(cnn3-c3ccc(F)cc3)C[C@]2(CO)C1 | 8.6 nM | 184 nM |
| CCOC[C@]12Cc3cnn(-c4ccc(F)cc4)c3C=C1CCN(S(=O)(=O)c1ccc(C(C)(C)C)cc1)C2 | 0.8 nM | 1.9 nM |
| C[C@]12Cc3cnn(-c4ccc(F)cc4)c3C=C1CCN(S(=O)(=O)c1ccc(N)cc1)C2 | 17 nM | > 1000 nM |
| CC(C)(C)c1ccc(S(=O)(=O)N2CCC3=Cc4c(cnn4-c4ccc(F)cc4)C[C@]3(CNCCO)C2)cc1 | 2.8 nM | 28 nM |
| C=CCNC[C@]12Cc3cnn(-c4ccc(F)cc4)c3C=C1CCN(S(=O)(=O)c1ccc(C(C)(C)C)cc1)C2 | 0.9 nM | 11 nM |
| CCN(CC)C[C@]12Cc3cnn(-c4ccc(F)cc4)c3C=C1CCN(S(=O)(=O)c1ccc(C(C)(C)C)cc1)C2 | 1.7 nM | 14 nM |
| Cc1ccccc1S(=O)(=O)N1CCC2=Cc3c(cnn3-c3ccc(F)cc3)C[C@]2(C)C1 | 22 nM |  |
| COCCCOC[C@]12Cc3cnn(-c4ccc(F)cc4)c3C=C1CCN(S(=O)(=O)c1ccc(C(C)(C)C)cc1)C2 | 0.8 nM | 1.6 nM |
| C[C@]12Cc3cnn(-c4ccc(F)cc4)c3C=C1CCN(S(=O)(=O)c1ccc(C(F)(F)F)cc1)C2 | 3.4 nM | 78 nM |
| COc1ccc(S(=O)(=O)N2CCC3=Cc4c(cnn4-c4ccc(F)cc4)C[C@]3(C)C2)cc1 | 3.7 nM | 178 nM |
| CN(C)CCNC[C@]12Cc3cnn(-c4ccc(F)cc4)c3C=C1CCN(S(=O)(=O)c1ccc(C(C)(C)C)cc1)C2 | 3.8 nM | 60 nM |
| O=C(c1ccccc1)N1CCC2=Cc3c(cnn3-c3ccc(F)cc3)CC2(Cc2ccc(F)cc2)C1 (racemic) | > 1000 nM |  |
